Data from US20260007729A1, “IM[…] VIRAL […](S)” (IMMUNEO Therapeutics GmbH, priority 2022, published 2026).

What was measured:
[1] = tested on: PBMCs from a healthy adult human; assay: IFNγ ELISpot analysis of antigen peptides ex vivo; format: cell-based; conditions: for Activation*10 (IFNγ activity, activation values times 10): calculated by formula, neg 36.0; for Cells/100,000 cells (positive counts per 100,000 cells): cells pre-stimulated with peptide pool, 267,000 cells per well, duplicates; for Effectiveness of immunization (product of number of activated cells and activation): FIG. 11, descending order
[2] = tested on: peripheral blood mononuclear cells (PBMCs) from a human donor; assay: Intracellular Cytokine Staining (ICS) of antigen polypeptides; format: cell-based
Method: An Intracellular Cytokine Staining (ICS) assay to assess the T-cell responses induced by an antigen polypeptide in the spirit of the current invention was carried out following this experimental procedure. The experimental procedure involved several sequential steps to prepare and analyze freshly harvested peripheral blood mononuclear cells (PBMCs) from a human donor.
PBMCs were cultured in RPMI-1640 medium supplemented with 10% fetal bovine serum, penicillin-streptomycin, and L-glutamine at 37° C. with 5% CO2. After culture, the cells were divided into different experimental groups. The cells were then stimulated with the antigen peptide vaccine or a control peptide, along with appropriate cytokines and co-stimulatory molecules to facilitate T cell activation. The antigen peptide was designed to effectively stimulate both CD4 and CD8 T-cell responses.
To inhibit cytokine secretion and promote intracellular cytokine accumulation, brefeldin A was added to the stimulated cells at a concentration of 10 μg/mL, and the cells were incubated overnight. Subsequently, the cells were harvested, and staining was performed. Fluorescently labeled antibodies, including AlexaFluor 488-conjugated anti-IFNγ and APC-H7-conjugated anti-CD4, as well as Pacific Orange-conjugated anti-CD8 and a cell surface marker were added to the cells and incubated.
To facilitate antibody access to intracellular molecules, the cells were fixed and permeabilized using a fixation solution and permeabilization buffer. Intracellular cytokine staining was carried out by adding fluorescently labeled antibodies against IFNγ or other cytokines of interest. Following staining, flow cytometry analysis was performed by gating on CD4 and CD8 T cells to determine the percentage of cytokine-producing cells.
The obtained data were analyzed to compare the percentage of cytokine-producing CD4 and CD8 T cells stimulated with the antigen polypeptides to that of unstimulated CD4 and CD8 T cells or T cells stimulated with a control peptide. […]

[3] = tested on: T cell CD4 and CD8 activity; assay: Antigen response in mice, second trial (immunization, intracellular cytokine staining); format: in vivo, wild-type mice (C57BL/6); conditions: mice immunized with Pep2 C, restimulation with peptides (FIG. 9)
Method: 3 Groups of wild-type mice (C57BL/6) consisting of 5 mice (group 2,3) and 3 mice for the negative control (group 1) were administered different vaccine candidates (as following) for evaluation.
The Groups were administered the following compositions: • a) Group 1 (no vac.): no vaccine • b) Group 2 (Pep2 C): peptide mix (60 μg per single peptide, 12 peptides selected from SEQ ID NOs: 43, 44, 46, 47, 50-58) with c-di-AMP (10 mg/dose) adjuvant • c) Group 3 (mRNA): Comirnaty mRNA vaccine (5 μg/dose)
The antigen peptide formulations in accordance with the present invention were administered subcutaneous (SC) three times in two-week intervals (see FIG. 7), the mRNA vaccine was administered intramuscular (IM) two times in a four-week interval (Group 3). After five weeks the immune response was determined, T cell CD8 activity was examined by cytokines secreted in response to stimulation with the peptide antigens were determined by intracellular cytokine staining (ICS) with Intracellular cytokine staining with IFNγ and TNFγ. Specific antibodies.

Sequence	Activation*10 (IFNγ activity, activation values times 10) [1]	Cells/100,000 cells (positive counts per 100,000 cells) ([1]; neg 25.8)	Effectiveness of immunization (product of number of activated cells and activation) [1]	other results
AATKMSECVLGQSKRVD [Pep-9]	38.0	22.1 Cells/100,000 cells	–	–
AISSVLNDILSRLDKVE [Pep-10]	34.8	17.2 Cells/100,000 cells	–	–
DGYFKIYSKHTPINLV [Pep-17]	99.6	249.1 Cells/100,000 cells	most effective	Cells/100,000 cells (positive counts per 100,000 cells) ([1]; neg 25.8, listed as Peptide 17): especially high counts
GDCLGDIAARDLIC [Pep-14]	–	262.2 Cells/100,000 cells	most effective	Cells/100,000 cells (positive counts per 100,000 cells) ([1]; neg 25.8, listed as Peptide 14): especially high counts
GKEDLKFPRGQGVPINTNSS [Pep-18]	10.1	24.3 Cells/100,000 cells	–	–
IRAAEIRASANLAATKM [Pep-21]	–	50.9 Cells/100,000 cells	most effective	–
KDLSPRWYFYYLGTG [Pep-20]	93.3	31.5 Cells/100,000 cells	–	–
LGKYEQYIKWPWYIWLGFIAG [Pep-15]	36.5	16.9 Cells/100,000 cells	–	–
MAYRFNGIGVTQNVLYE [Pep-7]	–	41.9 Cells/100,000 cells	most effective	CD8 / CD8+ response in ICS ([2]; FIG. 5, FIG. 9, groups of Table E7-1): strong CD8+ response; CD4 response in ICS ([2]; FIG. 8, groups of Table E7-1): some CD4 response; Individual activities in the ICS study ([2]; single peptides): high individual activities; Single peptide-specific CD8 T cell reaction [3]: caused a CD8 T cell reaction
RQGTDYKHWPQIAQF (synthetic peptide used as antigen comprising at least one HLA antigen peptide) [Pep-19]	36.6	21.3 Cells/100,000 cells	–	–
TFEYVSQPFLMDLEGKQ [Pep-13]	53.1	322.8 Cells/100,000 cells	most effective	Cells/100,000 cells (positive counts per 100,000 cells) ([1]; neg 25.8, listed as Peptide 13): especially high counts
